From paper PMC5748531, “Antimycobacterial Activities of N-Substituted-Glycinyl 1H-1,2,3-Triazolyl Oxazolidinones and Analytical Method Development and Validation for a Representative Compound” (Scientia Pharmaceutica, 2017)
In brackets after ≈: the same amount, converted by molar mass.

Assays:
[1] = format: in vitro ADME; conditions: 90 min, 50 μg/mL
Method: Aliquots of 0.5 mL of plasma samples (calibration standards) were mixed with 200 μL aliquots of internal standard solution using appropriate concentration (10–90 μg/mL) for PH-189 concentrations. The samples were loaded unto solid phase extraction (SPE) cartridges on a vacuum 20 position extraction manifold (Waters). The cartridges were pre-conditioned with 1 mL of acetonitrile followed by 1 mL of water. The loaded cartridges were washed with 1 mL of acetonitrile and the analytes (PH-189 and internal standard) were eluted with acetonitrile into a 1.5 mL glass vials. The collected samples were filtered using Kinesis syringe membrane filters (Kinesis Ltd, St Neots, UK) (13 mm) and were used for injection and analysis. The PH-189/internal standard ratios were used to calculate calibration curve and to determine PH-189 concentration in human plasma after 90 min at 37 °C.
Accuracy and precision of the UHPLC method for PH-189 was evaluated by preparing six sets of PH-189 in blank human plasma within the concentration ranges of the calibration curve. Accuracy and precision were performed in triplicate using four concentration levels of 1, 10, 50, and 90 μg/mL. […] Freezer-stored samples were thawed, extracted, and analyzed as previously mentioned. […]

[2] = in vitro; conditions: mouse
[3] = tested on: S. aureus; design: method as in PMID 23811087; conditions: S. aureus in vitro; cited from earlier work
[4] = tested on: Mtb H37Rv (SRI 1345); assay: MIC broth microdilution, Mtb H37Rv; format: cell-based; conditions: Mycobacterium tuberculosis, 168 h, read-out: MIC H37Rv
[5] = Stock standard solution stability; format: physicochemical; conditions: 100 μg/mL in acetonitrile, refrigerator (4 °C)
Method: Stock standard solutions of PH-189 and indapamide as internal standard were separately prepared by dissolving 10 mg of the compounds in 100 mL of acetonitrile to give stock concentrations of 100 μg/mL. Working solutions of PH-189 and internal standard were prepared by diluting the stock solutions with acetonitrile to obtain concentrations of 10 μg/mL and 90 μg/mL. Stock solutions were stable for at least 5 weeks when stored in a refrigerator (4 °C).

[6] = tested on: Mtb H37Rv (SRI 1345); assay: Low-oxygen recovery assay (LORA), non-replicating persistence; format: cell-based, Mycobacterium tuberculosis; conditions: 7 days anaerobic then 7 days ambient, 37 °C
[7] = tested on: Mtb H37Rv, INH-R, RMP-R and OFX-R Mtb; assay: MIC screening, all Mtb strains tested; format: cell-based, Mycobacterium tuberculosis; conditions: range over H37Rv
[8] = Drug cytotoxicity control plate assay (MTT cell proliferation); conditions: mouse
[9] = tested on: intracellular (macrophage) Mtb H37Rv (SRI 1345) in J774 cells; assay: Intracellular (macrophage) drug screening assay; format: cell-based, Mycobacterium tuberculosis; conditions: range at the three concentrations tested
[10] = tested on: Mtb H37Rv (SRI 1345); assay: Minimal bactericidal concentration (MBC); format: cell-based; conditions: Mycobacterium tuberculosis, read-out: MBC H37Rv
[11] = Mycobacterium tuberculosis, H37RV, 168 h, read-out: LORA, lowest concentration that visually inhibits growth
[12] = MTT % Viability (High Conc.), high conc., same as in macrophage assay
[13] = MTT % Viability (Low Conc.), low conc., same as in macrophage assay
[14] = MTT % Viability (Mid Conc.), mid conc., same as in macrophage assay

| SMILES | viability ([2]; MTT % Viability (High Conc.)) [%] | viability ([2]; MTT % Viability (Low Conc.)) [%] | viability ([2]; MTT % Viability (Mid Conc.)) [%] | MIC [4] [µM] | MIC [6, 11] [µM] | also measured |
| --- | --- | --- | --- | --- | --- | --- |
| O=C(NCC(=O)N1CCN(c2ccc(N3CC(Cn4ccnn4)OC3=O)cc2F)CC1)c1ccc([N+](=O)[O-])o1 (centres unmarked) [PH-189] | 86 | 98 | 88 | 0.5 (≈ 0.271 µg/mL) |  | average amount of PH-189 found in human plasma [1]: 48.79 µg/mL; recovered from human plasma [1]: more than 90%; MIC value in the presence of 50% human plasma [3]: remained unchanged; stock solutions stable for [5]: at least 5 weeks |
| Cc1cn(CC2CN(c3ccc(N4CCN(C(=O)CN)CC4)c(F)c3)C(=O)O2)nn1 (centres unmarked) [PH-151] | 74 | 83 | 87 | 5.8 (≈ 2.42 µg/mL) | > 58 |  |
| Cc1cn(CC2CN(c3ccc(N4CCN(C(=O)CNC(=O)c5cccnc5)CC4)c(F)c3)C(=O)O2)nn1 (centres unmarked) [PH-185] | 39 | 88 | 94 | 5.7 to 11.5 (≈ 2.98 to 6.01 µg/mL) |  |  |
| CCOC(=O)CC(=O)NCC(=O)N1CCN(c2ccc(N3CC(Cn4cc(C)nn4)OC3=O)cc2F)CC1 (centres unmarked) [PH-150] | 62 | 78 | 82 | 5.8 (≈ 3.08 µg/mL) | > 58 |  |
| Cc1cn(CC2CN(c3ccc(N4CCN(C(=O)CNC(=O)c5ccc([N+](=O)[O-])o5)CC4)c(F)c3)C(=O)O2)nn1 (centres unmarked) [PH-145] | 75 | 87 | 93 | 0.5 (≈ 0.278 µg/mL) |  |  |
| NCC(=O)N1CCN(c2ccc(N3CC(Cn4ccnn4)OC3=O)cc2F)CC1 (centres unmarked) [PH-172] | 71 | 87 | 72 | 3.6 (≈ 1.45 µg/mL) | > 58 | MIC ([6]; lowest concentration that visually inhibits growth, read-out: LORA): >58 µM |
| Cc1cn(CC2CN(c3ccc(N4CCN(C(=O)CNC(=O)c5cc([N+](=O)[O-])cc([N+](=O)[O-])c5)CC4)c(F)c3)C(=O)O2)nn1 (centres unmarked) [PH-181] |  |  |  | 3.3 (≈ 2.02 µg/mL) |  | MIC value range against all Mtb strains tested [7]: 0.052 to 3.3 µM; viability [8, 12]: 39%; viability [8, 13]: 91%; viability [8, 14]: 88% |
| O=C(NCC(=O)N1CCN(c2ccc(N3CC(Cn4ccnn4)OC3=O)cc2F)CC1)c1cc([N+](=O)[O-])cc([N+](=O)[O-])c1 (centres unmarked) [PH-193] |  |  |  | 1.7 (≈ 1.02 µg/mL) |  | MIC value range against all Mtb strains tested [7]: 0.052 to 3.3 µM; viability [8, 12]: 74%; viability [8, 13]: 100%; viability [8, 14]: 100% |
| O=C(NCC(=O)N1CCN(c2ccc(N3CC(Cn4ccnn4)OC3=O)cc2F)CC1)c1cccnc1 (centres unmarked) [PH-195] | 71 | 100 | 100 | 3.9 (≈ 1.98 µg/mL) |  |  |
| CO[C@H]1/C=C/O[C@@]2(C)Oc3c(C)c(O)c4c(O)c(c(/C=N/N5CCN(C)CC5)c(O)c4c3C2=O)NC(=O)/C(C)=C\C=C\[C@H](C)[C@H](O)[C@@H](C)[C@@H](O)[C@@H](C)[C@H](OC(C)=O)[C@@H]1C [RMP, Rifampicin, reference compound] |  |  |  | 0.06 (≈ 0.0494 µg/mL) |  | viability ([8]; uninfected J774 macrophages, MTT % Viability (High Conc.), high conc., same as in macrophage assay): 84%; viability ([8]; uninfected J774 macrophages, MTT % Viability (Low Conc.), low conc., same as in macrophage assay): 92%; viability ([8]; uninfected J774 macrophages, MTT % Viability (Mid Conc.), mid conc., same as in macrophage assay): 85%; viability ([8]; uninfected J774 macrophages, MTT percent cell viability, range, range at the three concentrations tested): 84 to 92%; MIC ([6]; Mycobacterium tuberculosis, H37RV, 168 h, lowest concentration that visually inhibits growth, read-out: LORA): 0.95 µM (≈ 0.782 µg/mL); Macrophage log reduction in Mtb, range [9]: 1.62–2.43; MBC [10]: 1.56 µM (≈ 1.28 µg/mL) |
| Cc1cn(CC2CN(c3ccc(N4CCN(C(=O)CNC(=O)C(Cl)Cl)CC4)c(F)c3)C(=O)O2)nn1 (centres unmarked) [PH-182] | 87 | 84 | 90 | 1.9 (≈ 1 µg/mL) | 0.015 to 5.7 (≈ 0.00793 to 3.01 µg/mL) |  |
| CC(=O)NCC(=O)N1CCN(c2ccc(N3CC(Cn4ccnn4)OC3=O)cc2F)CC1 (centres unmarked) [PH-165] | 84 | 91 | 87 | 6.7 (≈ 2.98 µg/mL) | > 58 |  |
| CCOC(=O)CC(=O)NCC(=O)N1CCN(c2ccc(N3CC(Cn4ccnn4)OC3=O)cc2F)CC1 (centres unmarked) [PH-169] | 73 | 76 | 75 | 2.9 (≈ 1.5 µg/mL) |  |  |
